{"source": "patent US4791215A", "about": "“Derivatives of glutamic acid and aspartic acid” (priority 1984, dated 1988)", "key": {"[1]": {"test_system": "activity of analgesic drugs", "test": "Hot-plate test, potentiation of analgesic drugs (Experiment 2)", "type": "in vivo, rats", "summary_of_the_method": "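Male rats of about 150 g, not fasted, five per group, were placed on a plate held at 55°±1° C. Licking or jumping latency was recorded before and at 10–90 min after dosing, with a 30 s cut-off. A positive response meant at least a doubling of reaction time, reported as positives/treated.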"}, "[2]": {"test_system": "intestinal transit of carbon", "test": "Anti-spastic activity, vegetable carbon intestinal transit test", "type": "in vivo, mice", "conditions": "Mus musculus, ip; read-out: antispastic activity ED50 (dose reducing intestinal transit of carbon by 50%)", "source_text": "The anti-spastic activity which the present compounds exert on the entire digestive system is also notable. Measured in mice with the vegetable carbon test (rate of transit through the stomach and the intestine), this activity is illustrated in the following table.\nclaimed administered intraperitoneally in mice. Values\nexpressed as the ED 50 in mg/kg, that is the dose which\nreduces the intestinal transit of carbon by 50%"}, "[3]": {"test_system": "CCK-8 induced contraction of guinea pig gall bladder", "test": "Anti-CCK-8 activity on gall bladders in situ", "type": "in vivo"}, "[4]": {"test_system": "enkephalinamide (DALA) analgesia", "test": "Potentiation of DALA (enkephalinamide) analgesia, i.c.v., Tail Flick Test (Experiment 4)", "type": "in vivo, rats", "set-up": "scale not given here", "conditions": "DALA 10 + compound 0.01 mg/kg (ICV), 0.01 mg/kg", "source_text": "Experiment No. 4: Potentiation of the analgesic activities of enkephalins induced by some of the compounds of the invention. […]"}, "morphine analgesia": {"test_system": "morphine analgesia", "test": "Increase in analgesia of morphine, Tail Flick Test (Experiment 1)", "type": "in vivo, rats", "summary_of_the_method": "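Non-fasted male rats (150-200 g); a tail point is exposed to a 75 °C heat source and latency to tail movement recorded, 8 s cut-off. Readings taken before and 10, 20, 30, 45, 60 and 90 min after analgesic treatment; percentage variation calculated per animal.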"}}, "note": "Several values for one entry are separate records, joined by “and”; a condition that tells them apart may be missing. Identical values can stand only once.", "data": [{"smiles": "CCCN(CCC)C(=O)C(CCC(=O)O)NC(=O)c1ccc(C)c(C)c1", "note": "(stereo not drawn) [Compound C-30]", "values": [{"measurement": "TOTAL positives", "setting": "[1]; oxyphenylbutazone 50 + compound 3 mg/kg i.p.", "value": 11, "unit": "x/30"}, {"measurement": "positive responses over number treated", "setting": "[1]; oxyphenylbutazone 50 + compound 3 mg/kg i.p., 10'", "value": "1/5"}, {"measurement": "positive responses over number treated", "setting": "[1]; oxyphenylbutazone 50 + compound 3 mg/kg i.p., 20'", "value": "1/5"}, {"measurement": "positive responses over number treated", "setting": "[1]; oxyphenylbutazone 50 + compound 3 mg/kg i.p., 30'", "value": "3/5"}, {"measurement": "positive responses over number treated", "setting": "[1]; oxyphenylbutazone 50 + compound 3 mg/kg i.p., 45'", "value": "2/5"}, {"measurement": "positive responses over number treated", "setting": "[1]; oxyphenylbutazone 50 + compound 3 mg/kg i.p., 60'", "value": "2/5"}, {"measurement": "positive responses over number treated", "setting": "[1]; oxyphenylbutazone 50 + compound 3 mg/kg i.p., 90'", "value": "2/5"}, {"measurement": "TOTAL positives", "setting": "[1]; oxyphenylbutazone 50 + compound 10 mg/kg i.p.", "value": 12, "unit": "x/30"}, {"measurement": "positive responses over number treated", "setting": "[1]; oxyphenylbutazone 50 + compound 10 mg/kg i.p., 10'", "value": "1/5"}, {"measurement": "positive responses over number treated", "setting": "[1]; oxyphenylbutazone 50 + compound 10 mg/kg i.p., 20'", "value": "2/5"}, {"measurement": "positive responses over number treated", "setting": "[1]; oxyphenylbutazone 50 + compound 10 mg/kg i.p., 30'", "value": "2/5"}, {"measurement": "positive responses over number treated", "setting": "[1]; oxyphenylbutazone 50 + compound 10 mg/kg i.p., 45'", "value": "3/5"}, {"measurement": "positive responses over number treated", "setting": "[1]; oxyphenylbutazone 50 + compound 10 mg/kg i.p., 60'", "value": "3/5"}, {"measurement": "positive responses over number treated", "setting": "[1]; oxyphenylbutazone 50 + compound 10 mg/kg i.p., 90'", "value": "2/5"}, {"measurement": "TOTAL positives", "setting": "[1]; oxyphenylbutazone 50 + compound 30 mg/kg i.p.", "value": 20, "unit": "x/30"}, {"measurement": "positive responses over number treated", "setting": "[1]; oxyphenylbutazone 50 + compound 30 mg/kg i.p., 10'", "value": "2/5"}, {"measurement": "positive responses over number treated", "setting": "[1]; oxyphenylbutazone 50 + compound 30 mg/kg i.p., 20'", "value": "3/5"}, {"measurement": "positive responses over number treated", "setting": "[1]; oxyphenylbutazone 50 + compound 30 mg/kg i.p., 30'", "value": "4/5"}, {"measurement": "positive responses over number treated", "setting": "[1]; oxyphenylbutazone 50 + compound 30 mg/kg i.p., 45'", "value": "4/5"}, {"measurement": "positive responses over number treated", "setting": "[1]; oxyphenylbutazone 50 + compound 30 mg/kg i.p., 60'", "value": "4/5"}, {"measurement": "positive responses over number treated", "setting": "[1]; oxyphenylbutazone 50 + compound 30 mg/kg i.p., 90'", "value": "3/5"}, {"measurement": "TOTAL positives", "setting": "[1]; propoxyphene 10 + compound 0.3 mg/kg i.p.", "value": 11, "unit": "X/30"}, {"measurement": "positive responses over number treated", "setting": "[1]; propoxyphene 10 + compound 0.3 mg/kg i.p., 10'", "value": "2/5"}, {"measurement": "positive responses over number treated", "setting": "[1]; propoxyphene 10 + compound 0.3 mg/kg i.p., 20'", "value": "1/5"}, {"measurement": "positive responses over number treated", "setting": "[1]; propoxyphene 10 + compound 0.3 mg/kg i.p., 30'", "value": "3/5"}, {"measurement": "positive responses over number treated", "setting": "[1]; propoxyphene 10 + compound 0.3 mg/kg i.p., 45'", "value": "3/5"}, {"measurement": "positive responses over number treated", "setting": "[1]; propoxyphene 10 + compound 0.3 mg/kg i.p., 60'", "value": "2/5"}, {"measurement": "positive responses over number treated", "setting": "[1]; propoxyphene 10 + compound 0.3 mg/kg i.p., 90'", "value": "0/5"}, {"measurement": "TOTAL positives", "setting": "[1]; propoxyphene 10 + compound 1 mg/kg i.p.", "value": 19, "unit": "X/30"}, {"measurement": "positive responses over number treated", "setting": "[1]; propoxyphene 10 + compound 1 mg/kg i.p., 10'", "value": "3/5"}, {"measurement": "positive responses over number treated", "setting": "[1]; propoxyphene 10 + compound 1 mg/kg i.p., 20'", "value": "4/5"}, {"measurement": "positive responses over number treated", "setting": "[1]; propoxyphene 10 + compound 1 mg/kg i.p., 30'", "value": "4/5"}, {"measurement": "positive responses over number treated", "setting": "[1]; propoxyphene 10 + compound 1 mg/kg i.p., 45'", "value": "4/5"}, {"measurement": "positive responses over number treated", "setting": "[1]; propoxyphene 10 + compound 1 mg/kg i.p., 60'", "value": "2/5"}, {"measurement": "positive responses over number treated", "setting": "[1]; propoxyphene 10 + compound 1 mg/kg i.p., 90'", "value": "2/5"}, {"measurement": "TOTAL positives", "setting": "[1]; propoxyphene 10 + compound 3 mg/kg i.p.", "value": 25, "unit": "X/30"}, {"measurement": "positive responses over number treated", "setting": "[1]; propoxyphene 10 + compound 3 mg/kg i.p., 10'", "value": "3/5"}, {"measurement": "positive responses over number treated", "setting": "[1]; propoxyphene 10 + compound 3 mg/kg i.p., 20'", "value": "5/5"}, {"measurement": "positive responses over number treated", "setting": "[1]; propoxyphene 10 + compound 3 mg/kg i.p., 30'", "value": "5/5"}, {"measurement": "positive responses over number treated", "setting": "[1]; propoxyphene 10 + compound 3 mg/kg i.p., 45'", "value": "5/5"}, {"measurement": "positive responses over number treated", "setting": "[1]; propoxyphene 10 + compound 3 mg/kg i.p., 60'", "value": "4/5"}, {"measurement": "positive responses over number treated", "setting": "[1]; propoxyphene 10 + compound 3 mg/kg i.p., 90'", "value": "3/5"}, {"measurement": "ED50", "setting": "[2]", "value": 77.7, "unit": "mg/kg"}, {"measurement": "percentage inhibition of contracting effect of CCK-8", "setting": "[3]; 30 mg/kg i.v., single experiments", "value": "82.1% and 92.5% and 79.5%"}, {"measurement": "ED50", "setting": "[3]; Cavia porcellus, iv, CCK-8 10 ng/kg i.v., read-out: ED50 (inhibition of 50% of contracting effect of CCK-8)", "value": 13.8, "unit": "mg/kg"}, {"measurement": "analgesic activity, Tail Flick", "setting": "[4]; 10'", "value": "58 and 59.1"}, {"measurement": "analgesic activity, Tail Flick", "setting": "[4]; 20'", "value": "60.8 and 67.8"}, {"measurement": "analgesic activity, Tail Flick", "setting": "[4]; 30'", "value": "77.0 and 86.0"}, {"measurement": "analgesic activity, Tail Flick", "setting": "[4]; 45'", "value": "66.4 and 83.3"}, {"measurement": "analgesic activity, Tail Flick", "setting": "[4]; 60'", "value": "48.8 and 83.3"}, {"measurement": "analgesic activity, Tail Flick", "setting": "[4]; 90'", "value": "45.0 and 55.1"}, {"measurement": "MEAN analgesic activity, Tail Flick", "setting": "[4]; mean", "value": "59.33 and 73.26"}, {"measurement": "percentage variation of latency of pain sensation", "setting": "morphine analgesia; 10', compound 10 mg/kg i.p. + morphine 2 mg/kg", "value": "69.9 ± 16", "unit": "%"}, {"measurement": "percentage variation of latency of pain sensation", "setting": "morphine analgesia; 20', compound 10 mg/kg i.p. + morphine 2 mg/kg", "value": "100.0 ± 0", "unit": "%"}, {"measurement": "percentage variation of latency of pain sensation", "setting": "morphine analgesia; 30', compound 10 mg/kg i.p. + morphine 2 mg/kg", "value": "95.2 ± 4.8", "unit": "%"}, {"measurement": "percentage variation of latency of pain sensation", "setting": "morphine analgesia; 45', compound 10 mg/kg i.p. + morphine 2 mg/kg", "value": "91.8 ± 8", "unit": "%"}, {"measurement": "percentage variation of latency of pain sensation", "setting": "morphine analgesia; 60', compound 10 mg/kg i.p. + morphine 2 mg/kg", "value": 100, "unit": "%"}, {"measurement": "percentage variation of latency of pain sensation", "setting": "morphine analgesia; 90', compound 10 mg/kg i.p. + morphine 2 mg/kg", "value": "100.0 ± 0", "unit": "%"}, {"measurement": "M (10-90) ± SE, mean percentage variation of latency", "setting": "morphine analgesia; mean 10-90 min, compound 10 mg/kg i.p. + morphine 2 mg/kg", "value": "92.8 ± 12", "unit": "%"}, {"measurement": "Power ratio with respect to morphine alone", "setting": "morphine analgesia; rat, in vivo", "value": 3.11}]}]}
